# Assay results from PubChem BioAssay AID292 (DTP/NCI, 2004).
# Several values for one entry are separate records, joined by “and”; a condition that tells them apart may be missing. Equal entries are not always repeated. Toxic doses and inconclusive results are not listed.
# Tested on: B6C3F1 mice, ip Sarcoma M5076, median survival T/C
# Assay: NCI In Vivo Anticancer Drug Screen. Data for tumor model Sarcoma M5076 (intraperitoneal) in B6C3F1 mice
# Conditions: endpoint: median survival time, higher = longer survival
# Experimental: The antitumor activity of compounds was measured in mice bearing transplantable tumors. Survival or tumor size were measured and the results are expressed as the measurement made in the treated group (T) divided by the measurement made in the vehicle treated control group (C). The tumor model used in this assay is Sarcoma M5076 (intraperitoneal) in B6C3F1 mice
# [1] = dose: 25.0 mg/kg/injection, schedule: Q04DX004 (ip), vehicle: saline with Tween-80
# [2] = dose: 50.0 mg/kg/injection, schedule: Q04DX004 (ip), vehicle: saline with Tween-80
# [3] = dose: 100.0 mg/kg/injection, schedule: Q04DX004 (ip), vehicle: saline with Tween-80
# [4] = dose: 200.0 mg/kg/injection, schedule: Q04DX004 (ip), vehicle: saline with Tween-80
# [5] = dose: 400.0 mg/kg/injection, schedule: Q04DX004 (ip), vehicle: saline with Tween-80
# [6] = dose: 800.0 mg/kg/injection, schedule: Q04DX004 (ip), vehicle: saline with Tween-80
compound,measurement,setting,value
c1cc2c(c(CC3CO3)c1CC1CO1)OCCOCCOCCOCCO2 (stereo not given),T/C,"dose: 25.0 mg/kg/injection, schedule: Q04DX004 (ip), vehicle: saline + alcohol",107 % of control
same,T/C,"dose: 50.0 mg/kg/injection, schedule: Q04DX004 (ip), vehicle: saline + alcohol",108 % of control
same,T/C,"dose: 100.0 mg/kg/injection, schedule: Q04DX004 (ip), vehicle: saline + alcohol",111 % of control
same,T/C,"dose: 200.0 mg/kg/injection, schedule: Q04DX004 (ip), vehicle: saline + alcohol",120 % of control
O=C1CN(CCN2CC(=O)N(CN3CCOCC3)C(=O)C2)CC(=O)N1CN1CCOCC1,T/C,"dose: 50.0 mg/kg/injection, schedule: Q04DX004 (ip), vehicle: water",97 % of control
same,T/C,"dose: 100.0 mg/kg/injection, schedule: Q04DX004 (ip), vehicle: water",109 % of control
c1cc2n(n1)CCN2,T/C,"dose: 50.0 mg/kg/injection, schedule: Q04DX005 (ip), vehicle: saline",86 % of control
Cc1cc(O)c2c(c1O)C(=O)C13C(=C2O)C(=O)C2C(O)C1C1C(O)C3C(=O)C3=C(O)c4c(O)cc(C)c(O)c4C(=O)C321 (stereo not given),T/C,"dose: 1.56 mg/kg/injection, schedule: Q04DX004 (ip), vehicle: saline with Tween-80",118 % of control
same,T/C,"dose: 3.12 mg/kg/injection, schedule: Q04DX004 (ip), vehicle: saline with Tween-80",118 % of control
same,T/C,"dose: 6.25 mg/kg/injection, schedule: Q04DX004 (ip), vehicle: saline with Tween-80",118 % of control
same,T/C,"dose: 12.5 mg/kg/injection, schedule: Q04DX004 (ip), vehicle: saline with Tween-80",124 % of control
NC(CCC(=O)NC(CS)C(=O)NCC(=O)O)C(=O)O (stereo not given),T/C,"dose: 75.0 mg/kg/injection, schedule: Q04DX004 (ip), vehicle: saline",110 % of control
same,T/C,"dose: 150.0 mg/kg/injection, schedule: Q04DX004 (ip), vehicle: saline",100 % of control
same,T/C,"dose: 300.0 mg/kg/injection, schedule: Q04DX004 (ip), vehicle: saline",102 % of control
same,T/C,"dose: 600.0 mg/kg/injection, schedule: Q04DX004 (ip), vehicle: saline",90 % of control
same,T/C,"dose: 1200.0 mg/kg/injection, schedule: Q04DX004 (ip), vehicle: saline",90 % of control
Cc1nc2c(cnn2C)cc1CCc1ccccc1,T/C,"dose: 18.75 mg/kg/injection, schedule: Q04DX004 (ip), vehicle: saline with Tween-80",99 % of control
same,T/C,"dose: 37.5 mg/kg/injection, schedule: Q04DX004 (ip), vehicle: saline with Tween-80",101 % of control
same,T/C,"dose: 75.0 mg/kg/injection, schedule: Q04DX004 (ip), vehicle: saline with Tween-80",99 % of control
same,T/C,"dose: 150.0 mg/kg/injection, schedule: Q04DX004 (ip), vehicle: saline with Tween-80",99 % of control
same,T/C,"dose: 300.0 mg/kg/injection, schedule: Q04DX004 (ip), vehicle: saline with Tween-80",90 % of control
CNC(=O)Oc1ccc(S(=O)(=O)c2ccc(OC(=O)NC)cc2)cc1,T/C,[1],100 % of control
same,T/C,[2],96 % of control and 104 % of control
same,T/C,[3],96 % of control and 97 % of control
same,T/C,[4],100 % of control and 101 % of control
CN(C)[C@@H]1C(=O)C(C(=O)NCN2CCN(C(=N)N=C(N)N)CC2)=C(O)[C@@]2(O)C(=O)C3=C(O)c4c(O)cccc4[C@@](C)(O)[C@H]3C[C@@H]12,T/C,"dose: 0.31 mg/kg/injection, schedule: Q04DX004 (ip), vehicle: saline",105 % of control
same,T/C,"dose: 0.62 mg/kg/injection, schedule: Q04DX004 (ip), vehicle: saline",102 % of control
same,T/C,"dose: 1.25 mg/kg/injection, schedule: Q04DX004 (ip), vehicle: saline",102 % of control
same,T/C,"dose: 1.8 mg/kg/injection, schedule: Q04DX004 (ip), vehicle: suspension in saline",94 % of control
same,T/C,"dose: 2.5 mg/kg/injection, schedule: Q04DX004 (ip), vehicle: saline",95 % of control
same,T/C,"dose: 3.0 mg/kg/injection, schedule: Q04DX004 (ip), vehicle: suspension in saline",90 % of control
same,T/C,"dose: 5.0 mg/kg/injection, schedule: Q04DX004 (ip), vehicle: saline",106 % of control
same,T/C,"dose: 5.0 mg/kg/injection, schedule: Q04DX004 (ip), vehicle: suspension in saline",93 % of control
same,T/C,"dose: 8.33 mg/kg/injection, schedule: Q04DX004 (ip), vehicle: suspension in saline",91 % of control
same,T/C,"dose: 13.88 mg/kg/injection, schedule: Q04DX004 (ip), vehicle: suspension in saline",94 % of control
CC1(C)N=C(N)N=C(N)N1c1ccc(CCCCc2ccc(S(=O)(=O)F)cc2Cl)c(Cl)c1,T/C,"dose: 15.0 mg/kg/injection, schedule: Q04DX004 (ip), vehicle: Klucel (hydroxypropylcellulose) (HPC)",204 % of control
same,T/C,"dose: 30.0 mg/kg/injection, schedule: Q04DX004 (ip), vehicle: Klucel (hydroxypropylcellulose) (HPC)",186 % of control
same,T/C,"dose: 60.0 mg/kg/injection, schedule: Q04DX004 (ip), vehicle: Klucel (hydroxypropylcellulose) (HPC)",270 % of control
same,T/C,"dose: 120.0 mg/kg/injection, schedule: Q04DX004 (ip), vehicle: Klucel (hydroxypropylcellulose) (HPC)",270 % of control
same,T/C,"dose: 240.0 mg/kg/injection, schedule: Q04DX004 (ip), vehicle: Klucel (hydroxypropylcellulose) (HPC)",270 % of control
Cc1ccc(C(=O)Nc2ccc(S(=O)(=O)O)c3cc(S(=O)(=O)O)cc(S(=O)(=O)O)c23)cc1NC(=O)c1cccc(NC(=O)Nc2cccc(C(=O)Nc3cc(C(=O)Nc4ccc(S(=O)(=O)O)c5cc(S(=O)(=O)O)cc(S(=O)(=O)O)c45)ccc3C)c2)c1,T/C,"dose: 25.0 mg/kg/injection, schedule: Q04DX004 (ip), vehicle: saline",105 % of control
same,T/C,"dose: 50.0 mg/kg/injection, schedule: Q04DX004 (ip), vehicle: saline",108 % of control and 109 % of control
same,T/C,"dose: 100.0 mg/kg/injection, schedule: Q04DX004 (ip), vehicle: saline",112 % of control
Oc1ccc(/C=N/N=C/c2ccc(O)c(O)c2)cc1O,T/C,[2],98 % of control
same,T/C,[3],95 % of control
same,T/C,[4],95 % of control
same,T/C,[5],93 % of control
same,T/C,[6],107 % of control
COC1C(O)CC(OC2CC(Oc3cc4cc5c(c(O)c4c(O)c3C)C(=O)[C@@H](OC3CC(OC4CC(OC6CC(C)(O)C(OC(C)=O)C(C)O6)C(O)C(C)O4)C(O)C(C)O3)[C@H]([C@H](OC)C(=O)[C@@H](O)[C@@H](C)O)C5)OC(C)C2OC(C)=O)OC1C (stereo not given in full),T/C,"dose: 37.5 micrograms/kg/injection, schedule: Q04DX004 (ip), vehicle: water",110 % of control
same,T/C,"dose: 75.0 micrograms/kg/injection, schedule: Q04DX004 (ip), vehicle: water",111 % of control
COC1=CCC23C(=O)C=CC(=O)C2(C1)C(=O)c1ccccc1C3=O (stereo not given),T/C,"dose: 1.5 mg/kg/injection, schedule: Q04DX004 (ip), vehicle: saline with Tween-80",110 % of control
same,T/C,"dose: 3.0 mg/kg/injection, schedule: Q04DX004 (ip), vehicle: saline with Tween-80",95 % of control
same,T/C,"dose: 6.0 mg/kg/injection, schedule: Q04DX004 (ip), vehicle: saline with Tween-80",94 % of control
same,T/C,"dose: 12.0 mg/kg/injection, schedule: Q04DX004 (ip), vehicle: saline with Tween-80",98 % of control
same,T/C,"dose: 24.0 mg/kg/injection, schedule: Q04DX004 (ip), vehicle: saline with Tween-80",108 % of control
CC(C)(C)c1noc2c1C(=O)c1ccccc1-2,T/C,[1],102 % of control
same,T/C,[2],105 % of control
same,T/C,[3],100 % of control
same,T/C,[4],90 % of control
Cc1c2ccccc2c(C)c2c1cc(C(=O)O)c1ccccc12,T/C,"dose: 12.5 mg/kg/injection, schedule: Q04DX004 (ip), vehicle: sodium bicarbonate",113 % of control
same,T/C,"dose: 25.0 mg/kg/injection, schedule: Q04DX004 (ip), vehicle: sodium bicarbonate",113 % of control
same,T/C,"dose: 50.0 mg/kg/injection, schedule: Q04DX004 (ip), vehicle: sodium bicarbonate",113 % of control
same,T/C,"dose: 200.0 mg/kg/injection, schedule: Q04DX004 (ip), vehicle: sodium bicarbonate",124 % of control
COc1ccc([C@@]23Oc4cc(OC)cc(OC)c4[C@]2(O)[C@H](O)[C@H](C(=O)N(C)C)[C@H]3c2ccccc2)cc1,T/C,"dose: 1.0 mg/kg/injection, schedule: Q04DX004 (ip), vehicle: Klucel (hydroxypropylcellulose) (HPC)",97 % of control
same,T/C,"dose: 2.0 mg/kg/injection, schedule: Q04DX004 (ip), vehicle: Klucel (hydroxypropylcellulose) (HPC)",105 % of control
same,T/C,"dose: 4.0 mg/kg/injection, schedule: Q04DX004 (ip), vehicle: Klucel (hydroxypropylcellulose) (HPC)",109 % of control
same,T/C,"dose: 8.0 mg/kg/injection, schedule: Q04DX004 (ip), vehicle: Klucel (hydroxypropylcellulose) (HPC)",123 % of control
Clc1cccc(Cl)c1C(Nc1nncs1)Nc1nncs1,T/C,[2],112 % of control and 122 % of control
same,T/C,[3],123 % of control
same,T/C,[5],164 % of control
same,T/C,[6],157 % of control and 195 % of control
O=C1N[C@@H]([C@H]2CC[C@H](Cl)CN2)C(=O)N[C@H]1[C@H]1CC[C@H](Cl)CN1,T/C,"dose: 0.5 mg/kg/injection, schedule: Q04DX005 (ip), vehicle: saline",115 % of control
same,T/C,"dose: 2.0 mg/kg/injection, schedule: Q04DX005 (ip), vehicle: saline",185 % of control
same,T/C,"dose: 4.0 mg/kg/injection, schedule: Q04DX005 (ip), vehicle: saline",319 % of control
same,T/C,"dose: 8.0 mg/kg/injection, schedule: Q04DX005 (ip), vehicle: saline",319 % of control
